Results published in ChEMBL document CHEMBL3272295, “Drugs derived from cannabinoids. 5. delta6a,10a-Tetrahydrocannabinol and heterocyclic analogs containing aromatic side chains” (J Med Chem, 1976).
Calls of active or inactive are those of the source. The calls are words filed in the database; no cut-off is given here.

Tests used:
[1] = test system: Mus musculus; test: Antianxiety activity in albino BALB/cJ mouse assessed as reduction in footshock-induced fighting behavior at 10 mg/kg, po after 30 to 90 mins; format: functional; parameters: scale not given: the % may be the effect or the level left
[2] = test system: Rattus norvegicus; test: Antihypertensive activity in spontaneously hypertensive rat model assessed as reduction in blood pressure at 30 mg/kg, po after 24 hrs; format: functional; parameters: scale not given: the % may be the effect or the level left
[3] = test system: Rattus norvegicus; test: Increase in motor activity in Long-Evans rat at 10 mg/kg, po after 2 hrs relative to vehicle-treated control; format: functional
[4] = test system: Mus musculus; test: Analgesic activity in mouse assessed as inhibition of acetic acid-induced writhing at 10 mg/kg, po administered 30 mins prior to acetic acid challenge measured after 5 mins for 20 mins; format: functional
[5] = test system: Rattus norvegicus; test: Antipsychotic activity in rat assessed as reduction of methamphetamine-induced hyperactivity at 10 mg/kg, po administered prior to methamphetamine challenge relative to vehicle-treated control; format: functional; parameters: scale not given: the % may be the effect or the level left
[6] = Acute toxicity in po dosed mouse; format: organism-based; settings: in vivo
[7] = test system: Rattus norvegicus; test: Antihypertensive activity in spontaneously hypertensive rat model assessed as reduction in blood pressure at 30 mg/kg, po after 3 hrs; format: functional; parameters: scale not given: the % may be the effect or the level left
[8] = test system: Rattus norvegicus; test: Antiulcer activity in albino Sprague-Dawley rat reserpine ulcer model assessed as prevention of reserpine-induced gastric lesions by measuring ulcer index scores at 10 mg/kg, po administered 30 mins prior to reserpine challenge measured after 6 hrs; format: functional; settings: Stomach
[9] = test system: Rattus norvegicus; test: Antihypertensive activity in spontaneously hypertensive rat model assessed as reduction in blood pressure at 3 mg/kg, po after 24 hrs; format: functional; parameters: scale not given: the % may be the effect or the level left
[10] = test system: Rattus norvegicus; test: Antianxiety activity in Long-Evans rat assessed as reduction in motor activity at 10 mg/kg, po after 2 hrs relative to vehicle-treated control; format: functional; parameters: scale not given: the % may be the effect or the level left
[11] = test system: Rattus norvegicus; test: Antiulcer activity in albino Sprague-Dawley rat shay ulcer model assessed as ulcer index scores at 20 mg/kg administered intraduodenally post pyloric ligation measured after 18.5 hrs relative to vehicle-treated control; format: functional; settings: route intraduodenal
[12] = test system: Felis catus; test: Hypnotic activity in cat assessed as increase in non-REM sleep time at 0.25 mg/kg administered orally through diet measured for 12 hrs by EEG analysis; format: functional; settings: route oral
[13] = test system: Felis catus; test: Hypnotic activity in cat assessed as increase in total sleep time at 0.5 mg/kg administered orally through diet measured for 12 hrs by EEG analysis; format: functional; settings: route oral
[14] = test system: Rattus norvegicus; test: Antipsychotic activity in rat assessed as reduction of methamphetamine-induced hyperactivity at 5 mg/kg, po administered prior to methamphetamine challenge relative to vehicle-treated control; format: functional; parameters: scale not given: the % may be the effect or the level left
[15] = species on record: Rattus norvegicus; test: animal or person; format: functional; settings: Charles River, route oral
Description: Antidiarrheal activity in Charles River rat assessed as inhibition of castor oil-induced diarrhea by measuring protected animals at 1 mg/kg, po administered 1 hr prior to castor oil challenge measured after 1 hr relative to vehicle-treated control

[16] = test system: Rattus norvegicus; test: Antisecretory activity in Sprague-Dawley rat assessed as decrease in acid output at 50 mg/kg, po administered 30 mins prior to pylorus ligation measured after 4 hrs relative to control; format: functional; parameters: scale not given: the % may be the effect or the level left
[17] = test system: Rattus norvegicus; test: Antianxiety activity in Long-Evans rat assessed as reduction in motor activity at 1 mg/kg, po after 2 hrs relative to vehicle-treated control; format: functional; parameters: scale not given: the % may be the effect or the level left
[18] = test system: Rattus norvegicus; test: Antisecretory activity in Sprague-Dawley rat assessed as decrease in pepsin output at 50 mg/kg, po administered 30 mins prior to pylorus ligation measured after 4 hrs relative to control; format: functional; parameters: scale not given: the % may be the effect or the level left
[19] = test system: Rattus norvegicus; test: Antisecretory activity in Sprague-Dawley rat assessed as decrease in acidity at 50 mg/kg, po administered 30 mins prior to pylorus ligation measured after 4 hrs relative to control; format: functional; parameters: scale not given: the % may be the effect or the level left
[20] = species on record: Rattus norvegicus; test: animal or person; format: functional; settings: Charles River, route oral; remark: listed apart in the source
Description: Antidiarrheal activity in Charles River rat assessed as inhibition of castor oil-induced diarrhea by measuring protected animals at 0.5 mg/kg, po administered 1 hr prior to castor oil challenge measured after 1 hr relative to vehicle-treated control

[21] = test system: Mus musculus; test: Antidepressant activity in po dosed mouse assessed as potentiation of DOPA-induced effect administered 4 hrs prior to DOPA challenge; format: functional; settings: read-out: MED
[22] = test system: Rattus norvegicus; test: Antiulcer activity in albino Sprague-Dawley rat reserpine ulcer model assessed as prevention of reserpine-induced gastric lesions by measuring ulcer index scores at 50 mg/kg, po administered 30 mins prior to reserpine challenge measured after 6 hrs; format: functional, Stomach
[23] = test system: Rattus norvegicus; test: Antihypertensive activity in spontaneously hypertensive rat model assessed as reduction in blood pressure at 3 mg/kg, po after 3 hrs; format: functional; parameters: scale not given: the % may be the effect or the level left
[24] = test system: Rattus norvegicus; test: Antiulcer activity in albino Sprague-Dawley rat shay ulcer model assessed as ulcer index scores at 50 mg/kg administered intraduodenally post pyloric ligation measured after 18.5 hrs relative to vehicle-treated control; format: functional; settings: route intraduodenal
[25] = test system: Rattus norvegicus; test: Antiulcer activity in albino Sprague-Dawley rat stress ulcer model assessed as prevention of stress-induced gastric lesions by measuring ulcer index score at 10 mg/kg, po administered 30 mins prior to stress measured after 4 hrs; format: functional, Stomach
[26] = test system: Mus musculus; test: Antianxiety activity in albino BALB/cJ mouse assessed as reduction in footshock-induced fighting behavior at 1 mg/kg, po after 30 to 90 mins; format: functional; parameters: scale not given: the % may be the effect or the level left
[27] = test system: Mus musculus; test: Analgesic activity in po dosed mouse assessed as inhibition of acetic acid-induced writhing administered 30 mins prior to acetic acid challenge measured after 5 mins for 20 mins; format: functional
[28] = test system: Canis familiaris; test: Antianxiety activity in po dosed dog assessed as ataxia administered as single dose measured up to 24 hrs; format: functional; settings: Canis lupus familiaris, read-out: MED
[29] = test system: Rattus norvegicus; test: Antiulcer activity in albino Sprague-Dawley rat stress ulcer model assessed as prevention of stress-induced gastric lesions by measuring ulcer index score at 40 mg/kg, po administered 30 mins prior to stress measured after 4 hrs; format: functional, Stomach
[30] = test system: Rattus norvegicus; test: Antiulcer activity in albino Sprague-Dawley rat shay ulcer model assessed as ulcer index scores at 40 mg/kg administered intraduodenally post pyloric ligation measured after 18.5 hrs relative to vehicle-treated control; format: functional; settings: route intraduodenal
[31] = test system: Felis catus; test: Hypnotic activity in cat assessed as increase in total sleep time at 1 mg/kg administered orally through diet measured for 12 hrs by EEG analysis; format: functional; settings: route oral
[32] = test system: Rattus norvegicus; test: Antihypertensive activity in spontaneously hypertensive rat model assessed as reduction in blood pressure at 10 mg/kg, po after 24 hrs; format: functional; parameters: scale not given: the % may be the effect or the level left
[33] = test system: Felis catus; test: Hypnotic activity in cat assessed as increase in total sleep time at 0.1 mg/kg administered orally through diet measured for 12 hrs by EEG analysis; format: functional; settings: route oral
[34] = test system: Felis catus; test: Hypnotic activity in cat assessed as increase in non-REM sleep time at 0.025 mg/kg administered orally through diet measured for 12 hrs by EEG analysis; format: functional; settings: route oral
[35] = test system: Felis catus; test: Hypnotic activity in cat assessed as increase in non-REM sleep time at 0.1 mg/kg administered orally through diet measured for 12 hrs by EEG analysis; format: functional; settings: route oral
[36] = test system: Rattus norvegicus; test: Antisecretory activity in Sprague-Dawley rat assessed as decrease in volume at 50 mg/kg, po administered 30 mins prior to pylorus ligation measured after 4 hrs relative to control; format: functional; parameters: scale not given: the % may be the effect or the level left
[37] = test system: Rattus norvegicus; test: Antidiarrheal activity in Charles River rat assessed as inhibition of castor oil-induced diarrhea by measuring protected animals at 0.25 mg/kg, po administered 1 hr prior to castor oil challenge measured after 1 hr relative to vehicle-treated control; format: functional
[38] = test system: Rattus norvegicus; test: Antianxiety activity in Long-Evans rat assessed as reduction in motor activity at 0.5 mg/kg, po after 2 hrs relative to vehicle-treated control; format: functional; parameters: scale not given: the % may be the effect or the level left
[39] = test system: Felis catus; test: Hypnotic activity in cat assessed as increase in non-REM sleep time at 0.5 mg/kg administered orally through diet measured for 12 hrs by EEG analysis; format: functional; settings: route oral
[40] = test system: Rattus norvegicus; test: Antihypertensive activity in spontaneously hypertensive rat model assessed as reduction in blood pressure at 10 mg/kg, po after 3 hrs; format: functional; parameters: scale not given: the % may be the effect or the level left
[41] = test system: Felis catus; test: Hypnotic activity in cat assessed as decrease in total sleep time at 0.025 mg/kg administered orally through diet measured for 12 hrs by EEG analysis; format: functional; settings: route oral
[42] = test system: Felis catus; test: Hypnotic activity in cat assessed as increase in total sleep time at 0.25 mg/kg administered orally through diet measured for 12 hrs by EEG analysis; format: functional; settings: route oral
[43] = test system: Rattus norvegicus; test: Increase in acid output in Sprague-Dawley rat at 50 mg/kg, po administered 30 mins prior to pylorus ligation measured after 4 hrs relative to control; format: functional
[44] = test system: Rattus norvegicus; test: Increase in pepsin output in Sprague-Dawley rat at 50 mg/kg, po administered 30 mins prior to pylorus ligation measured after 4 hrs relative to control; format: functional
[45] = test system: Rattus norvegicus; test: Increase in motor activity in Long-Evans rat at 5 mg/kg, po after 2 hrs relative to vehicle-treated control; format: functional
[46] = test system: Rattus norvegicus; test: Antisecretory activity in Sprague-Dawley rat assessed as decrease in pepsin concentration at 50 mg/kg, po administered 30 mins prior to pylorus ligation measured after 4 hrs relative to control; format: functional; parameters: scale not given: the % may be the effect or the level left
[47] = test system: Mus musculus; test: Analgesic activity in mouse assessed as inhibition of acetic acid-induced writhing at 100 mg/kg, po administered 30 mins prior to acetic acid challenge measured after 5 mins for 20 mins; format: functional
[48] = test system: Rattus norvegicus; test: Increase in methamphetamine-induced hyperactivity in rat at 5 mg/kg, po administered prior to methamphetamine challenge relative to vehicle-treated control; format: functional
[49] = test system: Rattus norvegicus; test: Increase in volume in Sprague-Dawley rat at 50 mg/kg, po administered 30 mins prior to pylorus ligation measured after 4 hrs relative to control; format: functional
[50] = test system: Rattus norvegicus; test: Analgesic activity in po dosed Sprague-Dawley rat after 15 to 90 mins by tail flick test; format: functional
[51] = test system: Rattus norvegicus; test: Antianxiety activity in Long-Evans rat assessed as reduction in motor activity at 100 mg/kg, po after 2 hrs relative to vehicle-treated control; format: functional; parameters: scale not given: the % may be the effect or the level left

Structure (SMILES): C#CCN1CCC2=C(C1)c1c(O)cc(C(C)CCc3ccc(F)cc3)cc1OC2(C)C (centres undefined)
- Activity [1]: 0%
- Activity [2]: 13%
- Activity [3]: 44%
- inhibition in vivo at 10 mg/kg [4]: 10%
- Activity [5]: 0%
- LD50 [6]: ≥ 1000 mg/kg
- Activity [7]: 4%

Structure (SMILES): C#CCN1CCC2=C(C1)c1c(O)cc(C(C)C(C)CCCCC)cc1OC2(C)C (centres undefined)
- Activity [8]: inactive
- Activity [9]: 4%
- Activity [10]: 75%
- UI [11]: 4.2
- Time [12]: 21 min
- Time [13]: 44 min
- Activity [14]: 52%
- inhibition in vivo at 1 mg/kg [15]: 100%
- Activity [1]: 62%
- Activity [16]: 49.8%
- Activity [17]: 71%
- Activity [18]: 41.9%
- Activity [19]: 23.5%
- inhibition in vivo at 0.5 mg/kg [20]: 63%
- minimal effective dose [21]: 2 mg/kg
- UI [22]: 1.8
- Activity [23]: 7%
- UI [24]: 0.5
- UI [25]: 1.3
- Activity [26]: 42%
- ED50 [27]: 4.3 mg/kg
- minimal effective dose [28]: 1 mg/kg
- UI [29]: 1.6
- UI [30]: 0.3
- Time [31]: 39 min
- Activity [32]: 27%
- Activity [5]: 74%
- Time [33]: 100 min
- Time [34]: 25 min
- LD50 [6]: ≥ 1000 mg/kg
- Time [35]: 62 min
- Activity [36]: 39.3%
- inhibition in vivo at 0.25 mg/kg [37]: 20%
- Activity [38]: 35%
- Time [39]: 28 min
- Activity [40]: 23%
- Time [41]: -12 min
- Time [42]: 56 min

Structure (SMILES): C#CCN1CCC2=C(C1)c1c(O)cc(CCCCC)cc1OC2(C)C
- Time [13]: 28 min
- Activity [43]: 6.1%
- Activity [1]: 6%
- Activity [44]: 18.3%
- Activity [2]: 9%
- Activity [19]: 14.8%
- Activity [45]: 6%
- Activity [46]: 8.3%
- inhibition in vivo at 100 mg/kg [47]: 19%
- Activity [48]: 47%
- Activity [49]: 24.6%
- LD50 [6]: ≥ 1000 mg/kg
- Activity [7]: 0%
- Time [39]: 12 min

Structure (SMILES): CC(C)=CCN1CC[C@]2(C)c3cc(O)ccc3C[C@H]1[C@H]2C [(+)-PENTAZOCINE]
- Activity [10]: 30%
- inhibition in vivo at 0.5 mg/kg [20]: 0%
- ED50 [50]: 60 mg/kg
- ED50 [27]: 37.6 mg/kg
- Activity [51]: 64%
